Series [1] relates to Influenza A/Victoria/3/75. Further details: species or system mice. Particulars: mouse, in vivo.
The next series has as its system A/Sydney/5/97. As to the kind of experiment: Inhibition of cytopathic effect (CPE) of influenza virus replication in MDCK cells. Particulars: for EC50 / IC50: Influenza A virus, MDCK; for EC50: read-out: EC50 on Influenza A/Sydney/5/97. (In general: Damage to the host cells serves as the signal in cytopathic effect assays.)
In another series the test system is B/Harbin/7/95. The series is described as above. Particulars: for EC50 / IC50: Influenza B virus, MDCK; for EC50: read-out: EC50 on Influenza B/Harbin/7/95.
Series [2] has as its system Influenza A/Singapore/1/57. Type of series: in vivo. Further details: Effectiveness: unit: %. Particulars: A/Singapore/1/57, lungs 1 day post infection; for Effectiveness / Mean Virus Titre (logTCID50/ml): mice.
For series [3], the system named is Influenza A/Victoria/3/75. Set-up: species or system mice. Particulars: mouse, in vivo. This is another data set of the same source.
The subject of a further series is Influenza A/WSN/33. Kind of series: Influenza plaque assay in MDCK cell monolayers. Particulars: Influenza A virus, 96 h, read-out: EC50 on Influenza A/WSN/33.
The test system of series [4] is Influenza A/Victoria/3/75. Kind of series: Influenza plaque assay in MDCK cell monolayers. Particulars: Influenza A virus, 96 h, read-out: EC50 on Influenza A/Victoria/3/75.
In series [5] the test system is Influenza B/Victoria/1/87. As to the kind of experiment: Influenza plaque assay in MDCK cell monolayers. Particulars: Influenza B virus, 96 h, read-out: EC50 on Influenza B/Victoria/1/87.
The subject of a further series is A/Victoria/3/75. Kind of series: Inhibition of cytopathic effect (CPE) of influenza virus replication in MDCK cells.
The nature of series [6]: Long duration of action: level of compound in lung tissue after intra-tracheal dosing. The format is in vivo, Rodents. Particulars: 0.4 mg/kg intra-tracheal, LC-MS/MS, in parallel with Zanamivir. As for the experimental part: Rodents are anaesthetised and dosed with compound of interest by the intra-tracheal route at a dose volume of 0.8 ml/kg. The rodent is then held in the vertical position until full recovery is achieved. At different time points, for example, 2, 8, 24 and 48 hours post-dose, levels of compound in the lung tissue are assessed by analytical methods. Any analytical method suitable for detection of this type of compound may-be used. The time at which levels of compound fall below the sensitivity of the analytical techniques identified will determine the residency time of the compound in lung tissue.
The multimeric Compounds No 3, 4 and 20 of the invention were tested in parallel with Zanamivir [Compound (A)] using a dose of 0.4 mg/kg for each compound and assessing the level of compound in the lung tissue after 48 and 168 hours, using LC-MS/MS.

[7] abbreviates: CPE results, same protocol as b341, MDCK cells.

Each structure is given as a SMILES string. Converted amounts (≈) assume the structure as drawn. Like-named read-outs stand apart in the source and are kept apart here.

For the molecule `CC(=O)N[C@H]1[C@H]([C@H](OC(=O)NCCCCCCNC(=O)COc2c3cc(C(C)(C)C)cc2Cc2cc(C(C)(C)C)cc(c2OCC(=O)NCCCCCCNC(=O)O[C@@H]([C@@H]2OC(C(=O)O)=C[C@H](NC(=N)N)[C@H]2NC(C)=O)[C@H](O)CO)Cc2cc(C(C)(C)C)cc(c2OCC(=O)NCCCCCCNC(=O)O[C@@H]([C@@H]2OC(C(=O)O)=C[C@H](NC(=N)N)[C@H]2NC(C)=O)[C@H](O)CO)Cc2cc(C(C)(C)C)cc(c2OCC(=O)NCCCCCCNC(=O)O[C@@H]([C@@H]2OC(C(=O)O)=C[C@H](NC(=N)N)[C@H]2NC(C)=O)[C@H](O)CO)C3)[C@H](O)CO)OC(C(=O)O)=C[C@@H]1NC(=N)N` [Compound 23], in series [1], the “% Effectiveness” value was 78.2%, the “Mean Virus Titre (logTCID50/ml)” value was 4.7 logTCID50/ml and the “Number of virus free mice” value worked out at 0. Further, in the series with A/Sydney/5/97 (setting [7]), the “EC50 on Influenza A/Sydney/5/97” value was 27.714. Further, the “EC50 on Influenza B/Harbin/7/95” value in the series with B/Harbin/7/95 (setting [7]) came out at 9.263.

As for `O=Cc1cc(C=O)cc(C=O)c1` [Compound 29], the EC50 was 0.089 ng/mL (≈ 0.549 nM) with A/Sydney/5/97 and 0.882 ng/mL (≈ 5.44 nM) with B/Harbin/7/95.

Regarding `CC(=O)N[C@H]1[C@H]([C@H](O)[C@H](O)CO)OC(C(=O)O)=C[C@@H]1NC(=N)N` [Zanamivir, 4-guanidino-2-deoxy-2,3-dehydro-N-acetylneuraminic acid, reference compound], the “% Effectiveness” value in series [1] is −43.4%. For the same molecule, the “Number of virus free mice” value in series [1] is recorded as 0; in series [2] (0.2 mg/kg), 0; in [2] (1 mg/kg), 0; in series [2] (5 mg/kg), 1; in [3], 0. Moreover, the Effectiveness was found to be 33.17 in [2] (0.2 mg/kg), 74.88 in series [2] (1 mg/kg), 93.69 in [2] (5 mg/kg) and 81.76 in [3]. The figures for the “Mean Virus Titre (logTCID50/ml)” value in series [2] (0.2 mg/kg), in [2] (1 mg/kg) and in series [2] (5 mg/kg) were 5.60 logTCID50/ml, 5.18 logTCID50/ml and 4.58 logTCID50/ml, respectively. Moreover, the EC50 in the series with Influenza A/WSN/33 was 22.7 ng/mL (≈ 68.3 nM); in [4] it was 3.5 ng/mL (≈ 10.5 nM); in series [5], 16 ng/mL (≈ 48.1 nM); in the series on A/Sydney/5/97 it was 32.7 ng/mL (≈ 98.3 nM); in the series on B/Harbin/7/95, 14.2 ng/mL (≈ 42.7 nM). For the same molecule, the IC50 in the series with A/Sydney/5/97 (read-out: IC50 nM) is 77.7 nM; with A/Sydney/5/97 (read-out: IC50 ng/ml), 25.8 ng/mL; in the series on B/Harbin/7/95 (read-out: IC50 nM), 31.2 nM; with B/Harbin/7/95 (read-out: IC50 ng/ml), 10.4 ng/mL; in the series on A/Victoria/3/75 (read-out: IC50 nM), 73.9 nM; in the series with A/Victoria/3/75 (read-out: IC50 ng/ml), 24.6 ng/mL.

For the molecule `CC(=O)N[C@H]1[C@H]([C@H](OC(=O)NCCCCCCN)[C@H](O)CO)OC(C(=O)O)=C[C@@H]1NC(=N)N` [Compound (2) TFA2, 5-acetamido-7-(6-aminohexylcarbamoyloxy)-4-guanidino-2,3,4,5-tetradeoxy-D-glycero-D-galacto-non-2-enopyranosonic acid], the IC50 with A/Sydney/5/97 (read-out: IC50 nM) amounted to 588 nM; in the series on A/Sydney/5/97 (read-out: IC50 ng/ml), 413 ng/mL; in the series with B/Harbin/7/95 (read-out: IC50 nM) it was 259 nM; with B/Harbin/7/95 (read-out: IC50 ng/ml), 182 ng/mL; in the series on A/Victoria/3/75 (read-out: IC50 nM) it was 52.7 nM; in the series on A/Victoria/3/75 (read-out: IC50 ng/ml), 37 ng/mL.

`CC(=O)N[C@H]1[C@H]([C@H](OC(=O)NCCCCCCNC(=O)CN(CCN(CC(=O)NCCCCCCNC(=O)O[C@@H]([C@@H]2OC(C(=O)O)=C[C@H](NC(=N)N)[C@H]2NC(C)=O)[C@H](O)CO)CC(=O)NCCCCCCNC(=O)O[C@@H]([C@@H]2OC(C(=O)O)=C[C@H](NC(=N)N)[C@H]2NC(C)=O)[C@H](O)CO)CC(=O)O)[C@H](O)CO)OC(C(=O)O)=C[C@@H]1NC(=N)N.O=C(O)C(F)(F)F` [Compound 14, (19R,20R)-19-((2R,3R,4S)-3-(acetylamino)-4-{[amino (imino)methyl]amino}-6-carboxy-3,4-dihydro-2H-pyran-2-yl)-3,6-bis[2-({6-[({[(1R,2R)-1-((2R,3R,4S)-3-(acetylamino)-4-{[amino(imino)methyl]amino}-6-carboxy-3,4-dihydro-2H-pyran-2-yl)-2,3-dihydroxypropyl]oxy}carbonyl)amino]hexyl}amino)-2-oxoethyl]-20,21-dihydroxy-8,17-dioxo-18-oxa-3,6,9,16-tetraazahenicosan-1-oic acid tris(trifluoroacetate)]: the EC50 in series [5] turned out to be 6.3 ng/mL.

In the case of `CC(=O)N[C@H]1[C@H]([C@H](OC(=O)NCCCCCCNC(=O)CN(CCN(CC(=O)NCCCCCCNC(=O)O[C@H](C(O)CO)[C@@H]2OC(C(=O)O)=C[C@H](NC(=N)N)[C@H]2NC(C)=O)CC(=O)NCCCCCCNC(=O)O[C@H](C(O)CO)[C@@H]2OC(C(=O)O)=C[C@H](NC(=N)N)[C@H]2NC(C)=O)CC(=O)NCCCCCCNC(=O)O[C@H](C(O)CO)[C@@H]2OC(C(=O)O)=C[C@H](NC(=N)N)[C@H]2NC(C)=O)C(O)CO)OC(C(=O)O)=C[C@@H]1NC(=N)N` (some centres unmarked) [Compound 3], the “level of compound in the lung tissue after 48 and 168 hours” value in [6] is “retained in the lung at much higher concentrations than the monomer Zanamivir (A)”. The “% Effectiveness” value in series [1] is listed as 59%. Moreover, the “Mean Virus Titre (logTCID50/ml)” value came out at 4.0 logTCID50/ml in [1], 5.55 logTCID50/ml in series [2] (0.01 mg/kg), 4.70 logTCID50/ml in series [2] (0.1 mg/kg) and 3.78 logTCID50/ml in series [2] (1 mg/kg). For the same molecule, the “Number of virus free mice” value in series [1] came out at 4; in [2] (0.01 mg/kg) it was 0; in [2] (0.1 mg/kg), 0; in series [2] (1 mg/kg), 1. Further, the Effectiveness in series [2] (0.01 mg/kg) was found to be 68.38; in [2] (0.1 mg/kg), 95.53; in [2] (1 mg/kg) it was 99.47. For the same molecule, the EC50 in [4] was 0.1 ng/mL (≈ 0.0472 nM); in series [5], 0.3 ng/mL (≈ 0.142 nM).
